How the values were obtained:
MCF7 cells = assay: Anti-proliferation (viability) of MCF7 cells (Table 7, FIG. 2B); format: cell-based; conditions: Homo sapiens, MCF7, MCF7 cells, 3-6 days, 10-point serial dilution; read-out: GI IC50 in MCF-7
CDK4 = CDK4 (Homo sapiens, UniProt P11802+Q16531); assay: HiBiT detection of HiBiT-tagged CDK4 protein level in MCF7 cells, 16 hours (Table 8); format: cell-based; set-up: expressed in transfected cells; host or cells: MCF7; conditions: MCF7 cells stably expressing HiBiT tagged target proteins; for activity at 0.01 µM: 10 nM, read-out: % CDK4 Relative Level (10 nM); for activity at 0.1 µM: 100 nM, read-out: % CDK4 Relative Level (100 nM)
Experimental: HiBiT detection system quantitatively measures total amounts of HiBiT-tagged proteins using a luminescent based method. MCF7 cells stably expressing HiBiT tagged target proteins were treated with heterobifunctional compounds at indicated concentrations for 16 hours, then lysed with Nano-Glo HiBiT Lytic detection reagents.

Sequence of CDK4 (P11802 whole entry): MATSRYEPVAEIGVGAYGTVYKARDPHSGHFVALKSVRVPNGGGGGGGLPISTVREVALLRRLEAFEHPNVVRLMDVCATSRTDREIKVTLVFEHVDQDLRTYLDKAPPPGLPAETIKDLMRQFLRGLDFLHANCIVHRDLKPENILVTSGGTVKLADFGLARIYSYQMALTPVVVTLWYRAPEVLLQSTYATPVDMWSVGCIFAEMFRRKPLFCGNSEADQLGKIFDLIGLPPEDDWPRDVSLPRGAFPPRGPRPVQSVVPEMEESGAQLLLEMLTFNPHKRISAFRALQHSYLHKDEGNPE
Sequence of CDK4 (P24385 whole entry partner): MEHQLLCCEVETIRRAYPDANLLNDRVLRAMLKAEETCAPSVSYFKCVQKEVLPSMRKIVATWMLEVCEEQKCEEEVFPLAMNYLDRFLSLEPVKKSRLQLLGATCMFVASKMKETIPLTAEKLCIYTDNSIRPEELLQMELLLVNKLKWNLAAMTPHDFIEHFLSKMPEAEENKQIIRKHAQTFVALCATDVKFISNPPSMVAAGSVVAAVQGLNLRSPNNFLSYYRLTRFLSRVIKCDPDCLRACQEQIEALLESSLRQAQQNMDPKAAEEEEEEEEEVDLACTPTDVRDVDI
Sequence of CDK4 (Q16531 2-1140 limits assumed): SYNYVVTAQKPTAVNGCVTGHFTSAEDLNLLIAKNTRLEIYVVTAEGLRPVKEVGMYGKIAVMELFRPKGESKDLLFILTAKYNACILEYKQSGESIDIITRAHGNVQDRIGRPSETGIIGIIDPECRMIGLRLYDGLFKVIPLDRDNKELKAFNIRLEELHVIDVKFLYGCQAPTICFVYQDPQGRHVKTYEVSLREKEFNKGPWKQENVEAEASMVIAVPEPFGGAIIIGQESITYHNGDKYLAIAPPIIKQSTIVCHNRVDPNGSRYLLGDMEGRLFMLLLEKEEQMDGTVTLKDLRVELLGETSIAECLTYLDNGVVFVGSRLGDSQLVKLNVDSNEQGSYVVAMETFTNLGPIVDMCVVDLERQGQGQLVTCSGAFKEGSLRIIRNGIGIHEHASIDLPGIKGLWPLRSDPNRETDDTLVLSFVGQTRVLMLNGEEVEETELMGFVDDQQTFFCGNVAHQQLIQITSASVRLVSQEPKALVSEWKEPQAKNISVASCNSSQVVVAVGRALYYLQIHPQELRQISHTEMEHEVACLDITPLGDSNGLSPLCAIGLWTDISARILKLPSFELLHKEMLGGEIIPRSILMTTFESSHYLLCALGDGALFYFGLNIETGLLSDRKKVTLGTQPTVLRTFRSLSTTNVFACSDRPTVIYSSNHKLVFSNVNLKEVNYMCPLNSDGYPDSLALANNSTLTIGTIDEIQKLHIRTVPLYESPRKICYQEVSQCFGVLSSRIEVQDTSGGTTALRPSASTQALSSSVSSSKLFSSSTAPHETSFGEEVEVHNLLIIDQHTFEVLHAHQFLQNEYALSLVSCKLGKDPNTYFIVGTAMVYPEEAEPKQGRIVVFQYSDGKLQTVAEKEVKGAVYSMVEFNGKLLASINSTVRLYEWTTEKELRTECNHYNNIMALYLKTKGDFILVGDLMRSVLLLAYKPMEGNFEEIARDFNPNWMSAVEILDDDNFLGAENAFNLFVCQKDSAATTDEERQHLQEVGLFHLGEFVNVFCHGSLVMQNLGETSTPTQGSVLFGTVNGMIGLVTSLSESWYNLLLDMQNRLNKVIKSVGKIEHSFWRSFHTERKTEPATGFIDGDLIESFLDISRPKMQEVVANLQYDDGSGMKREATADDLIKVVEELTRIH

Structure (SMILES) | IC50 (MCF7 cells) [nM] | activity at 0.01 µM (CDK4) [%] | activity at 0.1 µM (CDK4) [%]
CC(=O)c1c(C)c2cnc(Nc3ccc(CN4CCN(CC(=O)NC5CC6(C5)CC(Nc5nc(NC(C)C)ccc5C(=O)Nc5cc7n(n5)CCC7)C6)CC4)cn3)nc2n(C2CCCC2)c1=O (stereo not drawn) [CPD-584, 2-((6-(2-(4-((6-((6-acetyl-8-cyclopentyl-5-methyl-7-oxo-7,8-dihydropyrido[2,3-d]pyrimidin-2-yl)amino)pyridin-3-yl)methyl)piperazin-1-yl)acetamido)spiro[3.3]heptan-2-yl)amino)-N-(5,6-dihydro-4H-pyrrolo[1,2-b]pyrazol-2-yl)-6-(isopropylamino) nicotinamide] | < 50 | 55 to 85 | 55 to 85
CC(=O)c1c(C)c2cnc(Nc3ccc(CN4CCN(C(C)C(=O)NC5CC6(C5)CC(Nc5nc(NC(C)C)ccc5C(=O)Nc5ccc(N(C)C)nn5)C6)CC4)cn3)nc2n(C2CCCC2)c1=O (stereo not drawn) [CPD-585, 2-((6-(2-(4-((6-((6-acetyl-8-cyclopentyl-5-methyl-7-oxo-7,8-dihydropyrido[2,3-d]pyrimidin-2-yl)amino)pyridin-3-yl)methyl)piperazin-1-yl)propanamido)spiro[3.3]heptan-2-yl)amino)-N-(6-(dimethylamino)pyridazin-3-yl)-6-(isopropylamino)nicotinamide] | < 50 | 55 to 85 | 55 to 85
CC(=O)c1c(C)c2cnc(Nc3ccc(C(C)N4CCN(CC(=O)NC5CC6(C5)CC(Nc5nc(NC(C)C)ccc5C(=O)Nc5ccc(N(C)C)nn5)C6)CC4)cn3)nc2n(C2CCCC2)c1=O (stereo not drawn) [CPD-586, 2-((6-(2-(4-(1-(6-((6-acetyl-8-cyclopentyl-5-methyl-7-oxo-7,8-dihydropyrido[2,3-d]pyrimidin-2-yl)amino)pyridin-3-yl)ethyl)piperazin-1-yl)acetamido)spiro[3.3]heptan-2-yl)amino)-N-(6-(dimethylamino)pyridazin-3-yl)-6-(isopropylamino)nicotinamide] | < 50 | 55 to 85 | 55 to 85
CC(=O)c1c(C)c2cnc(Nc3ccc(N4CCN(C5CCN(C(=O)C67CC(Nc8nc(NC(C)C)ccc8C(=O)Nc8cc(C)n(C)n8)(C6)C7)C5)CC4)cn3)nc2n(C2CCCC2)c1=O (stereo not drawn) [CPD-587, 2-((3-(3-(4-(6-((6-acetyl-8-cyclopentyl-5-methyl-7-oxo-7,8-dihydropyrido[2,3-d]pyrimidin-2-yl)amino)pyridin-3-yl)piperazin-1-yl)pyrrolidine-1-carbonyl)bicyclo[1.1.1]pentan-1-yl)amino)-N-(1,5-dimethyl-1H-pyrazol-3-yl)-6-(isopropylamino)nicotinamide] | < 50 | 55 to 85 | 55 to 85
CC(=O)c1c(C)c2cnc(Nc3ccc(N4CCN(C5CCN(C(=O)C67CC(Nc8nc(NC(C)C)ccc8C(=O)Nc8cn(C)c(C9CC9)n8)(C6)C7)C5)CC4)cn3)nc2n(C2CCCC2)c1=O (stereo not drawn) [CPD-588, 2-((3-(3-(4-(6-((6-acetyl-8-cyclopentyl-5-methyl-7-oxo-7,8-dihydropyrido[2,3-d]pyrimidin-2-yl)amino)pyridin-3-yl)piperazin-1-yl)pyrrolidine-1-carbonyl)bicyclo[1.1.1]pentan-1-yl)amino)-N-(2-cyclopropyl-1-methyl-1H-imidazol-4-yl)-6-(isopropylamino)nicotinamide] | < 50 | 55 to 85 | 55 to 85
CC(=O)c1c(C)c2cnc(Nc3ccc(N4CCN(C5CCN(C(=O)C67CC(Nc8nc(C)ccc8C(=O)Nc8ccc(N(C)C)nn8)(C6)C7)C5)CC4)cn3)nc2n(C2CCCC2)c1=O (stereo not drawn) [CPD-590, 2-((3-(3-(4-(6-((6-acetyl-8-cyclopentyl-5-methyl-7-oxo-7,8-dihydropyrido[2,3-d]pyrimidin-2-yl)amino)pyridin-3-yl)piperazin-1-yl)pyrrolidine-1-carbonyl)bicyclo[1.1.1]pentan-1-yl)amino)-N-(6-(dimethylamino)pyridazin-3-yl)-6-methylnicotinamide] | < 50 | 55 to 85 | 55 to 85
CC(=O)c1c(C)c2cnc(Nc3ccc(N4CCN(C5CCN(C(=O)C67CC(Nc8nc(NC(C)C)ccc8C(=O)Nc8cc(C)on8)(C6)C7)C5)CC4)cn3)nc2n(C2CCCC2)c1=O (stereo not drawn) [CPD-591, 2-((3-(3-(4-(6-((6-acetyl-8-cyclopentyl-5-methyl-7-oxo-7,8-dihydropyrido[2,3-d]pyrimidin-2-yl)amino)pyridin-3-yl)piperazin-1-yl)pyrrolidine-1-carbonyl)bicyclo[1.1.1]pentan-1-yl)amino)-6-(isopropylamino)-N-(5-methylisoxazol-3-yl)nicotinamide] | < 50 | 55 to 85 | 55 to 85
CC(=O)c1c(C)c2cnc(Nc3ccc(CN4CCN(CC(=O)N(C)C5CC6(CC(Nc7nc(NC(C)C)ccc7C(=O)Nc7ccc(N(C)C)nn7)C6)C5)CC4)cn3)nc2n(C2CCCC2)c1=O (stereo not drawn) [CPD-594, 2-((6-(2-(4-((6-((6-acetyl-8-cyclopentyl-5-methyl-7-oxo-7,8-dihydropyrido[2,3-d]pyrimidin-2-yl)amino)pyridin-3-yl)methyl)piperazin-1-yl)-N-methylacetamido)spiro[3.3]heptan-2-yl)amino)-N-(6-(dimethylamino)pyridazin-3-yl)-6-(isopropylamino)nicotinamide] | < 50 | 55 to 85 | 55 to 85
CC(=O)c1c(C)c2cnc(Nc3ccc(CN4CCC(N(C)C(=O)C5CC6(CC(Nc7nc(NC(C)C)ccc7C(=O)Nc7ccc(N(C)C)nn7)C6)C5)CC4)cn3)nc2n(C2CCCC2)c1=O (stereo not drawn) [CPD-595, 2-((6-((1-((6-((6-acetyl-8-cyclopentyl-5-methyl-7-oxo-7,8-dihydropyrido[2,3-d]pyrimidin-2-yl)amino)pyridin-3-yl)methyl)piperidin-4-yl)(methyl)carbamoyl)spiro[3.3]heptan-2-yl)amino)-N-(6-(dimethylamino)pyridazin-3-yl)-6-(isopropylamino)nicotinamide] | < 50 | > 85 | 55 to 85
CC(=O)c1c(C)c2cnc(Nc3ccc(CN4CCC(CC(=O)NC5CC6(C5)CC(Nc5nc(NC(C)C)ccc5C(=O)Nc5ccc(N(C)C)nn5)C6)C4)cn3)nc2n(C2CCCC2)c1=O (stereo not drawn) [CPD-596, 2-((6-(2-(1-((6-((6-acetyl-8-cyclopentyl-5-methyl-7-oxo-7,8-dihydropyrido[2,3-d]pyrimidin-2-yl)amino)pyridin-3-yl)methyl)pyrrolidin-3-yl)acetamido)spiro[3.3]heptan-2-yl)amino)-N-(6-(dimethylamino)pyridazin-3-yl)-6-(isopropylamino)nicotinamide] | > 100 | 55 to 85 | > 85

Next, values leading:

IC50 (MCF7 cells) [nM] | activity at 0.01 µM (CDK4) [%] | activity at 0.1 µM (CDK4) [%] | Structure (SMILES)
< 50 | > 85 | 55 to 85 | CCc1ccc(C(=O)Nc2ccc(N(C)C)nn2)c(N[C@H]2CC[C@H](C(=O)N3CCC(N4CCN(C5CCC(Nc6ncc7c(C)c(C(C)=O)c(=O)n(C8CCCC8)c7n6)CC5)CC4)C3)CC2)n1 (stereo partly drawn) [CPD-597, 2-((trans-4-(3-(4-(4-((6-acetyl-8-cyclopentyl-5-methyl-7-oxo-7,8-dihydropyrido[2,3-d]pyrimidin-2-yl)amino)cyclohexyl)piperazin-1-yl)pyrrolidine-1-carbonyl)cyclohexyl)amino)-N-(6-(dimethylamino)pyridazin-3-yl)-6-ethylnicotinamide]
< 50 | 55 to 85 | 55 to 85 | CC(=O)c1c(C)c2cnc(Nc3ccc(CC4CCN(CC(=O)NC5CC6(C5)CC(Nc5nc(NC(C)C)ccc5C(=O)Nc5ccc(N(C)C)nn5)C6)CC4)cn3)nc2n(C2CCCC2)c1=O (stereo not drawn) [CPD-599, 2-((6-(2-(4-((6-((6-acetyl-8-cyclopentyl-5-methyl-7-oxo-7,8-dihydropyrido[2,3-d]pyrimidin-2-yl)amino)pyridin-3-yl)methyl)piperidin-1-yl)acetamido)spiro[3.3]heptan-2-yl)amino)-N-(6-(dimethylamino)pyridazin-3-yl)-6-(isopropylamino)nicotinamide]
> 100 | 55 to 85 | 55 to 85 | CNc1ccc(C(=O)Nc2ccc(N(C)C)nn2)c(NCCC(=O)N2CCN(Cc3ccc(Nc4ncc(F)c(-c5cc(F)c6nc(C)n(C(C)C)c6c5)n4)nc3)CC2)n1 [CPD-600, N-(6-(dimethylamino)pyridazin-3-yl)-2-((3-(4-((6-((5-fluoro-4-(4-fluoro-1-isopropyl-2-methyl-1H-benzo[d]imidazol-6-yl)pyrimidin-2-yl)amino)pyridin-3-yl)methyl)piperazin-1-yl)-3-oxopropyl)amino)-6-(methylamino)nicotinamide]
> 100 | 55 to 85 | 55 to 85 | CNc1ccc(C(=O)Nc2ccc(N(C)C)nn2)c(NCCCC(=O)N2CCN(Cc3ccc(Nc4ncc(F)c(-c5cc(F)c6nc(C)n(C(C)C)c6c5)n4)nc3)CC2)n1 [CPD-601, N-(6-(dimethylamino)pyridazin-3-yl)-2-((4-(4-((6-((5-fluoro-4-(4-fluoro-1-isopropyl-2-methyl-1H-benzo[d]imidazol-6-yl)pyrimidin-2-yl)amino)pyridin-3-yl)methyl)piperazin-1-yl)-4-oxobutyl)amino)-6-(methylamino)nicotinamide]
> 100 | 55 to 85 | 55 to 85 | CNc1ccc(C(=O)Nc2ccc(N(C)C)nn2)c(NCCCCC(=O)N2CCN(Cc3ccc(Nc4ncc(F)c(-c5cc(F)c6nc(C)n(C(C)C)c6c5)n4)nc3)CC2)n1 [CPD-602, N-(6-(dimethylamino)pyridazin-3-yl)-2-((5-(4-((6-((5-fluoro-4-(4-fluoro-1-isopropyl-2-methyl-1H-benzo[d]imidazol-6-yl)pyrimidin-2-yl)amino)pyridin-3-yl)methyl)piperazin-1-yl)-5-oxopentyl)amino)-6-(methylamino)nicotinamide]
